Test results published in US8586632B2, “Use of the irritating principal oleocanthal in olive oil, as well as structurally and functionally similar compounds” (Monell Chemical Senses Center, priority 2007, dated 2013).

Legend:
[1] = system: cultured rat trigeminal neurons; experiment: Intracellular calcium level in cultured rat trigeminal neurons (ratiometric Fura2 imaging); type: cell-based; parameters: key to TG Neuron Activation: The highest scale (+++) was assigned to the analogs that had approximately the same magnitude of response and excited the same number of neurons as oleocanthal; ++ responses were assigned to analogs that elicited intermediate responses to an intermediated number of cells; The + responses were weak but detectable and were observed in very few cells; No detectable response is indicated by 0; details: for TG Neuron Activation: single concentration 5 micromolar, response relative to oleocanthal; for intracellular calcium response in trigeminal neurons (in words): cultured rat trigeminal neurons; for number of trigeminal neurons responding, as % of the response to oleocanthal: 5 micromolar oleocanthal = 100%
Description: Activity of synthetic oleocanthal analogs was assessed by measurement of the intracellular calcium level in cultured rat trigeminal neurons. Flavor or taste perception is made up of the sensory experience of three chemical senses: taste, smell, and chemical-induced irritation or pain. This third component is mainly determined by the impact of chemical stimuli that are transmitted to the brain via the trigeminal nerve.
Trigeminal ganglia were harvested from 1-3 day old Sprague-Dawley rat pups. Neurons were dissociated in Hanks Buffered Saline Solution (HBSS) with trypsin (0.0625%) for 15 minutes, collagenase (1 mg/ml) and DNase (0.1 mg/ml) for 45 minutes, and then were separated from myelin/debris using a 15/30/60% Percoll gradient. The neurons were plated on poly-1-lysine/laminin-coated coverslips in modified neurobasal medium supplemented with B27, 100 ng/ml Nerve Growth Factor (NGF) and kept at 37° C., 5% CO2. […] Intracellular calcium was measured ratiometrically using excitation at 340 and 380 nm and emission at 510 nm. Experiments were performed at 31-32° C. Neurons were stimulated by compounds in Ringers solution (pH=7.34) that flowed over the neurons for 15 sec.
Synthetic (−)oleocanthal and related analogs were dissolved in absolute ethanol and then added to Ringer's solution adjusted at pH=7.34 with a final ethanol concentration of less than 0.1%. The octanol-water partition coefficient (Log P), expressing compound lipophilicity, was calculated based on chemical structure with the Interactive Analysis Log P predictor website. In general, the higher the log P number, the greater the lipophilicity, and the greater the tendency of the compound to partition into the lipid phase of the cell membranes.
Oleocanthal activates rat trigeminal neurons; 5 microM of the olive oil irritant elicits a robust intracellular calcium increase in about 25 to about 35% of cultured rat trigeminal neurons (FIG. 6). Therefore, to assess the irritation potency of oleocanthal analogs and in order to avoid human consumption of unnatural compounds, activity was determined by measurement of the intracellular calcium level in cultured rat trigeminal neurons. […] Thus, both aldehyde groups, as well as unsaturation, are required to maintain full activity. […] Analog 11 is of particular interest. Like oleocanthal, analog 11 (or 4-DHPEA-EDA) is a secoiridoid derivative naturally present in extra virgin olive oil. Oleocanthal and 4-DHPEA-EDA formation occurs during olive oil production by enzymatic and chemical degradation of their respective precursors ligstroside and oleuropein, two glucosylated secoiridoids abundantly synthesized in unripe olives (FIG. 9). Oleocanthal and 4-DHPEA-EDA are structurally very similar—the sole difference being a second phenolic hydroxyl group in 4-DHPEA-EDA. […] For the experiment illustrated in FIG. 8, analog 13 (5, 10, 20 and 50 micomolar) was applied on a separate coverslip containing trigeminal neurons and activation was determined. This was followed by application of 5 micromolar oleocanthal to the same four coverslips. For each coverslip, the number of trigeminal neurons responding to oleocanthal was determined and defined as 100%. The number of trigeminal neurons responding to analog 13 corresponded to approximately 6% (5 micromolar analog 13), 25% (10 micromolar analog 13), 45% (20 micromolar analog 13) and 96% (50 micromolar analog 13) of the response to oleocanthal. For each coverslip, 18-20 trigeminal neurons were sensitive to oleocanthal. […] Analog 13 is very close in structure to oleocanthal (Table 2), lacking only a single carbon. […] While not wishing to be bound by any one theory, it is believed that the shorter chain of analog 13 pulls the rigid ring forward creating a steric obstruction to efficacious binding with the receptor.

[2] = system: oral irritation; details: reported, Anke et al. 1991; cited from earlier work
[3] = system: throat; experiment: Throat irritation sensory test of synthetic oleocanthal in corn oil (two-alternative forced-choice); type: in vivo, human; details: for correct trials, 2AFC throat irritation: ten subjects
Description: Testing was double-blind and each was exposed to three sets of two samples, one of which was added synthesized oleocanthal and the other served as the blank control. The task was to indicated which of the pair was more irritating. […] Importantly, the effect was dose dependent (FIG. 2 open triangles, dashed line). Ten subjects were tested with non-irritating commercial corn oils presented neat and mixed with either synthesized (−)-oleocanthal or the bitter agent sucrose octaacetate (SOA) (Sigma-Aldrich). […] (−)-Oleocanthal was tested at the highest concentration identified in the ten rated oils, 200 μg/ml, and at one half and whole log steps more dilute 63.25 and 20 μg/ml. SOA was added to the corn oil (4×10^−4, 1×10^−4, 5×10^−5 M) to intensity match the irritation of the three levels of (−)-oleocanthal. Subjects participated in two-alternative forced-choice (2AFC) trials (four trials at every concentration for each subject) and in intensity ratings sessions (four ratings per each oil). For the 2AFC trials subjects were presented with two 3.0 ml corn oil samples with matching intensities of SOA and (−)-oleocanthal in ascending order, and were required to sample oils as described above. While blind to stimulus position, subjects were asked two questions on each trial, “Which of the two oils was more irritating in the throat?” and “Which one was more bitter?” At the 20 μg/ml & 5×10^−5 M level most subjects reported on some trials that the same oil was both the more irritating and the more bitter of the two. […] Subjects performed at chance when selecting among two unadulterated corn oils, when the correct choice was randomly assigned prior to testing. […] The other two concentrations were correct 39/40 and 40/40 trials. For the intensity rating trials subjects were presented with all eight oils in ascending order, counterbalanced for stimulus order and asked to rate the throat irritation and bitterness of every oil on a general labeled magnitude scale.

## C/C=C(/C=O)[C@@H](CC=O)CC(=O)OCCc1ccccc1 [Analog 1]
[1]
  TG Neuron Activation: +++

## C/C=C(/C=O)[C@@H](CC=O)CC(=O)OCCc1ccc(F)cc1 [Analog 2]
[1]
  TG Neuron Activation: +++

## C/C=C(/C=O)[C@@H](CC=O)CC(=O)OCCc1ccccc1O [Analog 3]
[1]
  TG Neuron Activation: +++

## C/C=C(/C=O)[C@@H](CC=O)CC(=O)OCCc1cccc(O)c1 [Analog 4]
[1]
  TG Neuron Activation: +++

## C/C=C1\[C@H](CC(=O)OCCc2ccc(O)cc2)C[C@@H](O)[C@H]1O [Analog 5]
[1]
  intracellular calcium response in trigeminal neurons (in words): did not elicit intracellular calcium increase
  TG Neuron Activation: 0

## C/C=C(/C=O)[C@@H](CC=O)CC(=O)OC [Analog 6]
[1]
  TG Neuron Activation: ++

## C/C=C(/C=O)[C@@H](CC=O)CC(=O)OCCCCC [Analog 7]
[1]
  TG Neuron Activation: +++

## C/C=C(/C=O)[C@@H](CC=O)CC(=O)OCCCc1ccc(O)cc1 [Analog 8]
[1]
  TG Neuron Activation: +++

## C/C=C(/C=O)[C@@H](CCO)CC(=O)OCCc1ccc(O)cc1 [Analog 9]
[1]
  intracellular calcium response in trigeminal neurons (in words): did not elicit intracellular calcium increase
  TG Neuron Activation: +

## C/C=C(/CO)[C@@H](CCO)CC(=O)OCCc1ccc(O)cc1 [Analog 10]
[1]
  intracellular calcium response in trigeminal neurons (in words): did not elicit intracellular calcium increase
  TG Neuron Activation: 0

## C/C=C(/C=O)[C@@H](CC=O)CC(=O)OCCc1ccc(O)c(O)c1 [Analog 11, 4-DHPEA-EDA]
[1]
  TG Neuron Activation: +++
[2]
  oral irritation (in words): very little oral irritation

## CC[C@@H](C=O)[C@@H](CC=O)CC(=O)OCCc1ccc(O)cc1 [Analog 12]
[1]
  intracellular calcium response in trigeminal neurons (in words): did not elicit intracellular calcium increase
  TG Neuron Activation: 0

## C/C=C(/C=O)[C@@H](CC=O)CC(=O)OCc1ccc(O)cc1 [Analog 13]
[1]; 5 micromolar analog 13
  number of trigeminal neurons responding, as % of the response to oleocanthal: approximately 6%
[1]; 10 micromolar analog 13
  number of trigeminal neurons responding, as % of the response to oleocanthal: about 25%
[1]; 20 micromolar analog 13
  number of trigeminal neurons responding, as % of the response to oleocanthal: ~45%
[1]; 50 micromolar analog 13
  number of trigeminal neurons responding, as % of the response to oleocanthal: ~96%
[1]
  intracellular calcium response in trigeminal neurons (in words): small responses
  TG Neuron Activation: +
[1]; trigeminal neuron stimulation, FIG. 8
  multiple of concentration needed to reach the potency of oleocanthal: approximately 10 times

## C/C=C(/C=O)[C@@H](CC=O)CC(=O)OCCc1ccc(O)cc1 [Oleocanthal (−), 2-(4-hydroxyphenyl)ethyl, 4-formyl-3-(2-oxoethyl)-4-hexenoic acid ester]
[1]
  TG Neuron Activation: +++
[3]; 20 μg/ml in corn oil vs intensity-matched SOA
  correct trials, 2AFC throat irritation: 24 out of 40
[3]; 63.25 μg/ml in corn oil vs intensity-matched SOA
  correct trials, 2AFC throat irritation: 39/40
[3]; 200 μg/ml in corn oil vs intensity-matched SOA
  correct trials, 2AFC throat irritation: 40/40
[3]; synthetic compound in corn oil
  throat irritation (in words): identical to oleocanthal isolated from premium olive oil
[3]; three evaluators, three presentations each, corn oil, approx. twice the concentration in Falconaro olive oil, vs blank, p<0.01
  correct identification of the more irritating sample (2AFC): 9 of 9
[3]; throat irritation, 2AFC
  concentration near detection threshold levels in corn oil: ~20 µg/mL
